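Cells were grown in 96-well plates and exposed to each compound for 48 hours at five concentrations; endpoints were interpolated linearly between bracketing concentrations, or set to the highest concentration if not reached. At the GI50, growth is halved. TGI denotes the concentration required for complete inhibition of growth.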 Where a SMILES comes first, the peptide text is derived from it. Bridges are numbered along the chain shown (N, C = ends). [ ]: non-standard residue; d: D form. The star is where a group is joined. ξ: configuration not given here. ξDab(CH2SO3H) = NC(CCNCS(=O)(=O)O)C(=O)O; Heptanoyl(6-Me) = CC(C)CCCCC(=O)*; Dab = NCC[CH](N)C(=O)O
Each compound was assayed on MDA-MB-468 breast (assay: growth of human tumour cells (NCI), 48 h).

Compound	GI50 [nM]	TGI [nM]
CN(C)CCCOc1c2ccc(Cl)cc2nc2c1oc1ccccc12	1950	5070
CN(C)CCCCC(C(=O)CBr)(c1ccccc1)c1ccccc1	1090	2890
C=C1C(=O)O[C@H]2[C@H]1CC/C(C=Nc1c(N)cc(C(F)(F)F)cc1C(F)(F)F)=C\CC[C@@]1(C)O[C@@H]21	1500	3210
CN1CCC2(CC1)NC(=O)c1c(c3ccc(Cl)c(Cl)c3n1C)C2C#N (stereo not given)	2180	6870
COc1ccc(Nc2cc(C)nc(NCc3ccccc3)n2)cc1	776	2510
CC(C)(C)[Si](C)(C)OC1[C@@H](O[Si](C)(C)C(C)(C)C)[C@@H](CNC(=O)NC(=O)CF)O[C@H]1n1cnc2c(NC(=O)Nc3ccccc3)ncnc21 (stereo not given in full)	3210	20100
N=C(N)SCc1c2ccccc2c(CSC(=N)N)c2ccccc12	2320	9810
[Cl][Hg][c]1ccc(Cl)s1	1190	2770
N#Cc1c(N)n2c(nc1=Nc1ccc(Cl)cc1)sc1cc(Cl)ccc12	3620	> 100000
Cc1ccc2c(c1)c(Sc1ccc(C(=O)NO)cc1)c1n2CN(C)CC1	1100	2970
COc1cccc(/C=N/NC(=O)c2ccccc2N2CCCC2)c1O	3330	> 100000
COc1cc(/C(=C2/O[C@@H]([C@H]3COC(C)(C)O3)[C@H]3OC(C)(C)O[C@@H]23)c2ccc3ccccc3c2)cc(OC)c1OC	4020	21100
O=C(Nc1ccc(-n2cc(-c3ccncc3)c(-c3ccc(O)c(Cl)c3)n2)cc1)Nc1ccc(Cl)c(C(F)(F)F)c1	2960	13100
CC(=O)Nc1c(I)c(NC(C)=O)c(I)c(C(=O)O)c1I	> 100000	> 100000
Clc1ccc(Nc2ccnc(N3CCN(c4ccnc5cc(Cl)ccc45)CC3)n2)cc1	2080	5560
CCCCCCCCCCCCSC1=C(Cl)C(=O)C(OC)=C(OC)C1=O	438	16900
C[C@@H](NC(=O)/C(C#N)=C/c1ccc([N+](=O)[O-])cc1)c1ccccc1	1740	3370
CCCCCCCCC/C(=N\NC(=O)c1ccncc1)c1ccc(O)c(O)c1O	161	1110
COCCNc1ccc2c3c(cccc13)C(=O)N(CCN(C)C)C2=O	7100	> 25000
O=C([O][Hg][CH2]C1OCCOC1[CH2][Hg][O]C(=O)c1ccccc1)c1ccccc1 (stereo not given)	1710	3080
CCC(C)C1NC(=O)C(CCNCS(=O)(=O)O)NC(=O)C(NC(=O)C(CCNCS(=O)(=O)O)NC(=O)C(NC(=O)C(CCNCS(=O)(=O)O)NC(=O)CCCCC(C)C)C(C)O)CCNC(=O)C(C(C)O)NC(=O)C(CCNCS(=O)(=O)O)NC(=O)C(CCNCS(=O)(=O)O)NC(=O)C(C(C)CC)NC1=O (stereo not given) ({Heptanoyl(6-Me)}-[ξDab(CH2SO3H)]T[ξDab(CH2SO3H)][Dab][ξDab(CH2SO3H)]II[ξDab(CH2SO3H)][ξDab(CH2SO3H)]T; lactam 4-C; configuration not given here)	807	4890
COc1cc2c(c(OC)c1OC)-c1ccc(OC)c(=O)cc1[C@@H](NC(C)=O)CC2	< 10	> 100000
CCN1C(=O)N(CC)C2C1NN=c1s/c(=C\c3ccco3)c(=O)n12 (stereo not given)	356	> 100000
N#C[Se]CCN1C(=O)C2C(C1=O)[C@H]1C=C[C@@H]2S1 (stereo not given in full)	2600	7710

Compound	GI50 [nM]	TGI [nM]
Cc1nc(-c2nc(-c3ccc(OC(F)(F)F)cc3)no2)nn1Cc1cccc(N2CCC(S(C)(=O)=O)CC2)c1	< 10	3900
COc1cc(C(=O)N2CCN(c3ccccc3)CC2)c2ccccc2n1	31.8	211
S=C(NCCNC(=S)[S][Sn]([c]1ccccc1)([c]1ccccc1)[c]1ccccc1)[S][Sn]([c]1ccccc1)([c]1ccccc1)[c]1ccccc1	12.9	41.9
CCOC(=O)c1cc(C(=O)c2cc(OC)c(OC)c(OC)c2)n2c1ccc1ccccc12	158	–
C=C1[C@@H](C)C2[C@H](Cc3ccccc3)NC(=O)[C@]23[C@H](OC(C)=O)/C=C/[C@@](C)(O)C(=O)[C@@H](C)C/C=C/[C@H]3[C@@H]1O (stereo not given in full)	38.9	12700
CC[C@]12CC(C(=O)OC)=C3Nc4ccccc4[C@@]34CCN(C14)[C@@H]1c3cc4c(cc3O[C@@H]1[C@H]2O)NC1=C(C(=O)OC)C[C@@]2(CC)C3N(CC[C@@]143)C[C@H]1O[C@H]12 (stereo not given in full)	129	1050
Cc1cc(Nc2ncc3c(n2)N(C)C(=O)N(c2cc(NC(=O)c4cccc(C(F)(F)F)c4)ccc2C)C3)n(C)n1	57.9	396
CC[C@@H](C(=O)[C@H](C)[C@H](O)[C@@H](C)[C@H]1O[C@H]([C@@H](CC)C(=O)N(CC)CC)CC[C@H]1C)C1O[C@]2(C=C[C@@H](O)[C@]3(CC[C@@](C)([C@H]4CC[C@](O)(CC)[C@H](C)O4)O3)O2)[C@H](C)C[C@@H]1C (stereo not given in full)	1810	5800
C[C@]12CC[C@@H]3c4cc(O)c(O)cc4CC[C@H]3[C@@H]1CC[C@@H]2O	3820	21100
COc1cc2ncnc(Nc3cccc(Cl)c3F)c2cc1OC(=O)N1CCN(C)C[C@H]1C	60.7	1270
Cn1nc(C(F)(F)F)cc1-c1c[nH]c(OCc2ccc(Cl)cc2)c(-c2ccc(Cl)c(C(F)(F)F)c2)c1=O	940	4730
CCOC(=O)Nc1nc2ccc(Br)cc2s1	> 50000	> 50000
COc1cc2c(cc1Cc1cccc(Cl)c1F)c(=O)c(C(=O)O)cn2[C@@H](CO)C(C)C	3260	9320
N#Cc1c(N2CCOCC2)nc(=S)[nH]c1-c1ccccc1	25800	> 100000
O=[N+]([O-])c1ccc(C2CC(c3ccccc3)=Nc3ccccc3S2)cc1 (stereo not given)	> 100000	> 100000
Cn1cc(C2=C(c3c4n(c5ccccc35)CCC(CN)C4)C(=O)NC2=O)c2ccccc21 (stereo not given)	2910	6890
CN1CCN(Cc2ccc(NC(=O)c3cncc(C#Cc4cnc5ccc(OCC(C)(C)O)nn45)c3)cc2C(F)(F)F)CC1	183	409
CC/C(=C(/c1ccc(O)cc1)c1ccc(OCCN)cc1)c1ccccc1	1570	3940
N/C(=N/N=C/c1ccccc1)N/N=C\c1ccccc1	2520	11300
CCCCCCn1c(-c2ccc(C(=O)O/N=C(\N)c3ccc4ccccc4c3)cc2)nc(-c2ccccc2)c1-c1ccccc1	22200	97700
Cc1cc(O)cc(C)c1/C=C/c1cncc(C(N)=O)c1	749	4620
Cc1ccc2c(n1)C(=O)C(Cl)=C(Nc1ccccc1C(=O)OC(C)(C)C)C2=O	1470	3250
O=C(/C(=C/c1ccc([N+](=O)[O-])cc1)SCc1ccc(Cl)cc1)c1ccc(F)cc1	2870	9220
COc1ccc2c(O)c(/C=C3\N=Nc4ccccc43)oc2c1C[C@@H]1CCNC[C@H]1F	10400	23600

Source: PubChem BioAssay (NCI)
